{"source": "paper PMC5746514", "about": "(The Korean Journal of Physiology & Pharmacology : …, 2017)", "biological_target": "T1, Kv3.1 potassium channel (Kv3.1b) (Rattus norvegicus, UniProt P25122)", "T1 sequence (P25122 1-585)": "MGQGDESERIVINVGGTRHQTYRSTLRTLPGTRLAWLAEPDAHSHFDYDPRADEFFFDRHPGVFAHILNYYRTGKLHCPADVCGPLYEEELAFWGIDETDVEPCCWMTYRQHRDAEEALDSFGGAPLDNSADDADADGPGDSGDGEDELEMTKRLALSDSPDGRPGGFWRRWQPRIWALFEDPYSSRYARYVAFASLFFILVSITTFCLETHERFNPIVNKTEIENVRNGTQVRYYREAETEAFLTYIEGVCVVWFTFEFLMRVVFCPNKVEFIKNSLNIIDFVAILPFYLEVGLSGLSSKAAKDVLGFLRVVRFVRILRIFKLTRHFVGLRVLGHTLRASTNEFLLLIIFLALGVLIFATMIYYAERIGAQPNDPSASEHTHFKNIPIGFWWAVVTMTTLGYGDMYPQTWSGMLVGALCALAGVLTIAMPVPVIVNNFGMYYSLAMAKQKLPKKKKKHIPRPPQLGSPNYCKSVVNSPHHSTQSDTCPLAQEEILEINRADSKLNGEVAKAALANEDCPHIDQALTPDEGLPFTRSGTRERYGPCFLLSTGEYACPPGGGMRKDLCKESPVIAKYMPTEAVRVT", "test": "whole-cell patch clamp of transfected CHO cells", "format": "cell-based"}
{"molecule": "Fc1ccc([C@@H]2CCNC[C@H]2COc2ccc3c(c2)OCO3)cc1", "note": "[paroxetine]", "values": [{"measurement": "IC50", "value": 9.43, "unit": "µM"}]}
